Results from patent US20090054394A1, “POLYMORPHISMS IN MGST3 ARE ASSOCIATED WITH ELEVATED ALAT LEVELS AFTER XIMELAGATRAN TREATMENT” (priority 2005, published 2009).

Test system: alanine aminotransferase (ALAT) levels
Assay: Clinical trials, longer-term ximelagatran treatment: alanine aminotransferase (ALAT) elevation
Type: in vivo, human
From the text: Phase III clinical trials have been performed using fixed doses of melagatran and ximelagatran for the prevention of VTE in hip or knee replacement surgery. In addition, clinical trials have been performed using ximelagatran for the treatment and long-term secondary prevention of VTE, and for the prevention of stroke in patients with non-valvular atrial fibrillation. Ximelagatran has also been tested for secondary thrombosis prophylaxis post-myocardial infarction/acute coronary syndrome (ACS).
Alanine aminotransferrase (ALAT) is an enzyme mostly expressed in the liver (EC 2.6.1.2). It is also called serum glutamate pyruvate transaminase (SGPT) or alanine transaminase (ALT). This enzyme is release into the plasma by liver cell death, which is a normal event. However, when liver cell death increases, ALAT levels rise above the normal range. The spill-over of this enzyme into blood is routinely measured as a marker of abnormal liver-cell damage. For example, alcoholic or viral hepatitis will increase ALAT levels, as will severe congestive heart failure. ALAT is also markedly raised in hepatitis and other acute liver damage. An elevated ALAT in the presence of normal levels of plasma alkaline phosphatase helps distinguish liver disease caused by liver-cell damage from diseases caused by problems in biliary ducts. Elevations of ALAT are normally measured in multiples of the upper limit of normal (ULN), with a reference range of 15-45 U/L in most laboratories. In 1987, in a study of 19,877 healthy Air Force recruits, only 99 (0.5%) had confirmed ALAT elevations (as reviewed in Green & Flamm (2002) Gastroenterology 123:1367-1384).
The increase in ALAT values with ximelagatran, usually occurred within the first 6 months of treatment and were mainly asymptomatic. […] Subject to the future regulatory approval of ximelagatran, regular liver function testing (LFT) using an appropriate algorithm may be required if ximelagatran is used for treatment periods exceeding a month. […]

CCOC(=O)CN[C@@H](C(=O)N1CC[C@H]1C(=O)NCc1ccc(/C(N)=N\O)cc1)C1CCCCC1 [ximelagatran, EtOOC—CH2—(R)Cgl-Aze-Pab-OH]
patients exhibiting ALAT 3-fold or more above the upper limit of normal (≧3×ULN) (longer-term treatment (>35 days), 1.2% in the comparator groups): 7.9%
reversibility of the increases in ALAT (regardless of whether treatment was continued or discontinued): reversible in most patients
time of occurrence of the increase in ALAT values (usually, time from start of treatment): ≤ 6 months
